Experiments:
Oxytocin receptor [1] = target: T1, Oxytocin receptor (Homo sapiens, UniProt P30559); assay: Antagonist activity at human OTR expressed in HEK293 cells assessed as inhibition of agonist-induced IP1 accumulation preincubated for 30 mins followed by agonist addition measured after 1 hr by HTRF assay; assay type: functional, cell-based
T1 sequence (P30559 whole entry): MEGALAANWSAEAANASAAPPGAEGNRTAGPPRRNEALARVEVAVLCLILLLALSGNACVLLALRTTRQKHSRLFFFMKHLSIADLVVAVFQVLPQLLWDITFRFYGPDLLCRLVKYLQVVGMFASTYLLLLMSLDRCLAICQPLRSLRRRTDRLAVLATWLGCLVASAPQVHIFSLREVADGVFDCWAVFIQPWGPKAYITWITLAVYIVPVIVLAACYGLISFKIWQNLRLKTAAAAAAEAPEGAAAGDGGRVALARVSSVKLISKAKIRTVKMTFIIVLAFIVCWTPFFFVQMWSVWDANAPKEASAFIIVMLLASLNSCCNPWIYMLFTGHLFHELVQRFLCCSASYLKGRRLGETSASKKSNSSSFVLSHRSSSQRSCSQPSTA

Oxytocin receptor [2] = target: T1, Oxytocin receptor; assay: Displacement of [3H]-oxytocin from human OTR expressed in HEK293 cell membranes after 90 mins by radioligand binding assay
Vasopressin V1a receptor [3] = target: T2, Vasopressin V1a receptor (Homo sapiens, UniProt P37288); assay: Displacement of [3H]-vasopressin from human vasopressin V1a receptor expressed in HEK293 cell membranes after 90 mins by radioligand binding assay
Oxytocin receptor [4] = target: T1, Oxytocin receptor; assay: Agonist activity at human OTR expressed in HEK293 cells assessed as induction of IP1 accumulation after 1 hr by HTRF assay; assay type: functional, cell-based
Vasopressin V1a receptor [5] = target: T2, Vasopressin V1a receptor; assay: Agonist activity at human vasopressin V1a receptor expressed in HEK293 cells assessed as induction of IP1 accumulation after 1 hr by HTRF assay; assay type: functional, cell-based
Vasopressin V1a receptor [6] = target: T2, Vasopressin V1a receptor; assay: Antagonist activity at human vasopressin V1a receptor expressed in HEK293 cells assessed as inhibition of vasopressin-induced IP1 accumulation preincubated for 30 mins followed by vasopressin addition measured after 1 hr by HTRF assay; assay type: functional, cell-based

T2 sequence (P37288 whole entry): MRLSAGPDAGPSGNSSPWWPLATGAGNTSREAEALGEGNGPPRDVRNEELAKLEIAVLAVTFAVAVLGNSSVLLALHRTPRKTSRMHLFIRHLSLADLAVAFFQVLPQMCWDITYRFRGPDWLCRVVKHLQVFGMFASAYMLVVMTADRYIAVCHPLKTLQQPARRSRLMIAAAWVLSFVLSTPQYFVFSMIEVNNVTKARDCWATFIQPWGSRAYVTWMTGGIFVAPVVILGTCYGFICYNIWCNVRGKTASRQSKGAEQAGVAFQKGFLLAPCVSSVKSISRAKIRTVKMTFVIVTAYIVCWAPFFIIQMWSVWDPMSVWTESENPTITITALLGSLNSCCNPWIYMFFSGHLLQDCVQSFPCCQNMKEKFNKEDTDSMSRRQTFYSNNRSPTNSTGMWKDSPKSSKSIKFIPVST

SMILES	IC50 (Oxytocin receptor [1]) [µM]	Ki (Oxytocin receptor [2]) [µM]	Ki (Vasopressin V1a receptor [3]) [nM]	EC50 (Oxytocin receptor [4]) [µM]	EC50 (Vasopressin V1a receptor [5]) [µM]	IC50 (Vasopressin V1a receptor [6]) [µM]
COc1cc(CN2CCN(c3ccccc3CCC(=O)N3Cc4cnn(C)c4Nc4ccccc43)CC2)cc(OC)c1	> 10	> 10	1060	> 10	> 10	> 10
Cn1ncc2c1Nc1ccccc1N(C(=O)CCc1ccccc1N1CCN(Cc3cc(O)cc(O)c3)CC1)C2	> 10	> 10	251	> 10	> 10	> 10
Cn1ncc2c1Nc1ccccc1N(C(=O)CCc1ccc(N3CCN(Cc4cc(O)cc(O)c4)CC3)cc1)C2	> 10	> 10	1760	> 10	> 10	> 10
COc1cc(CN2CCN(c3ccc(CCC(=O)N4Cc5cnn(C)c5Nc5ccccc54)cc3)CC2)cc(OC)c1	> 10	> 10	6250	> 10	> 10	> 10
COc1cc(CN2CCN(c3ccccc3CC(=O)N3Cc4cnn(C)c4Nc4ccccc43)CC2)cc(OC)c1	> 10	> 10	6810	> 10	> 10	> 10

Other lines, results leading:

IC50 (Oxytocin receptor [1]) [µM]	Ki (Oxytocin receptor [2]) [µM]	Ki (Vasopressin V1a receptor [3]) [nM]	EC50 (Oxytocin receptor [4]) [µM]	EC50 (Vasopressin V1a receptor [5]) [µM]	IC50 (Vasopressin V1a receptor [6]) [µM]	SMILES
> 10	> 10	3340	> 10	> 10	> 10	COc1cc(CN2CCN(c3cccc(CCC(=O)N4Cc5cnn(C)c5Nc5ccccc54)c3)CC2)cc(OC)c1
> 10	> 10	643	> 10	> 10	> 10	Cn1ncc2c1Nc1ccccc1N(C(=O)Cc1cccc(N3CCN(Cc4cc(O)cc(O)c4)CC3)c1)C2
> 10	> 10	2100	> 10	> 10	> 10	COc1cc(CN2CCN(c3cccc(CC(=O)N4Cc5cnn(C)c5Nc5ccccc54)c3)CC2)cc(OC)c1
> 10	> 10	1940	> 10	> 10	> 10	Cn1ncc2c1Nc1ccccc1N(C(=O)Cc1ccccc1N1CCN(Cc3cc(O)cc(O)c3)CC1)C2
> 10	> 10	1910	> 10	> 10	> 10	COc1cc(CN2CCN(c3ccc(CC(=O)N4Cc5cnn(C)c5Nc5ccccc54)cc3)CC2)cc(OC)c1
> 10	> 10	795	> 10	> 10	> 10	Cn1ncc2c1Nc1ccccc1N(C(=O)Cc1ccc(N3CCN(Cc4cc(O)cc(O)c4)CC3)cc1)C2
> 10	> 10	874	> 10	> 10	> 10	Cn1ncc2c1Nc1ccccc1N(C(=O)CCc1cccc(N3CCN(Cc4cc(O)cc(O)c4)CC3)c1)C2

Reference: ChEMBL document CHEMBL4138154, “Conformationally rigid derivatives of WAY-267,464: Synthesis and pharmacology at the human oxytocin and vasopressin-1a receptors” (Eur J Med Chem, 2018)
